# Measurements as given in publication PMC3169616, “Unique Residues Involved in Activation of the Multitasking Protease/Chaperone HtrA from Chlamydia trachomatis” (PLoS ONE, 2011).
# What was measured:
# CtHtrA = target: T1, CtHtrA (Chlamydia trachomatis serovar D, UniProt P18584); test: Oligomerisation assay (glutaraldehyde crosslinking, 3-8% TrisAcetate gel, silver stain); type: biochemical; conditions: wild type CtHtrA 2 mg/ml, 100 mM sodium phosphate pH 7.0, 10 mins at 37°C, 0.5% glutaraldehyde fixation
# T1 construct: His-tag; made in house; host or cells: E. coli BL21 (DE3), plasmid pETHtrA
# T1 sequence (P18584 17-497): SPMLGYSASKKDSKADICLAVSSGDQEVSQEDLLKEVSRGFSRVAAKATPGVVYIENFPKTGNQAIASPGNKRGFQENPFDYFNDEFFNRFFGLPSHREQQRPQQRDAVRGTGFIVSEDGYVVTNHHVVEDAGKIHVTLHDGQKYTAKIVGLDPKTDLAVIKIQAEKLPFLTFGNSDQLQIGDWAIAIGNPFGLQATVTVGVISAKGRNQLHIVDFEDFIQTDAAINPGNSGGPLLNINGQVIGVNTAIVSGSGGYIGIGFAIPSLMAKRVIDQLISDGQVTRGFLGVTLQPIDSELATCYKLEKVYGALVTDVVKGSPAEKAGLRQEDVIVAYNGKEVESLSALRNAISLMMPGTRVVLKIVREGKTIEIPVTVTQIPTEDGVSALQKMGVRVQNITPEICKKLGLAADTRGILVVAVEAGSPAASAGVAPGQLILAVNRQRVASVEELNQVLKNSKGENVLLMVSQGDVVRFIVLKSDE
# Procedure: (§1) E. coli DegP proteolysis activation involves the transition from resting hexamers via trimers to 12- and 24-mers following the peptide activator binding to the PDZ1 binding cleft. CtHtrA oligomer formation induced by Act1 addition was examined after incubation for 10 mins at 37°C. The wild type and mutant proteins were incubated with either the ß-casein based activator peptide (Act1), or with whole insulin (intact), or in the absence of any activator as a control. CtHtrA incubated in the absence of any added activators formed 24-mers with some hexamers detected after 10 mins (Fig. 5). […] The R299W mutant was present as hexamer and 24-mer in the control with no activator. […] The L302N mutant was not detected in any higher oligomeric form under any conditions. L302N was detected as faint hexamer and trimer but mostly monomer under all tested conditions (not visible on these gels). […] I365D was detected as hexamers, trimers, 12-mers, and some 24-mers when incubated in the absence of activators.
# (§2) The oligomerisation of HtrA into 12- and 24-mer complexes has been independently detected for E. coli HtrA (DegP). The oligomerisation of HtrA (DegP) was triggered by peptides from digested ß-casein [18]. Assays to detect whether CtHtrA and site directed mutant protein oligomerisation was triggered by substrates were conducted essentially as previously described (Merdanovic et al., 2010). Briefly, 2 mg/ml protein solutions in 100 mM sodium phosphate buffer pH 7.0 were pre-incubated to the required temperature. The ligands (activator peptide, or insulin) were added and at 10 min, and the proteins were fixed using 0.5% glutaraldehyde. Samples were fixed at room temperature for 2 min prior to addition of 1 M Tris pH 7.5 to remove any excess glutaraldehyde. Samples were incubated for another 10 min at room temperature prior to addition of SDS PAGE reducing loading buffer. The protein samples were examined on 3–8% TrisAcetate gradient polyacrylamide gels (Novex, Invitrogen) by silver staining. The proteins used in this study were not initially denatured by treatment with urea as, the refolding, formation of oligomers, and protease activity was never successfully detected with denatured CtHtrA. All assays were conducted in duplicate on three separate occasions with at least two gels of each experiment completed for each assay condition.
# CtHtrA I365D = test: Oligomerisation assay, mutated protein; type: biochemical, Chlamydia trachomatis; conditions: I365D mutant, 10 mins incubation
# Procedure: as §1, §2
# CtHtrA R299W = test: Oligomerisation assay, mutated protein; type: biochemical, Chlamydia trachomatis; conditions: R299W mutant, 10 mins incubation
# Procedure: as §1, §2
# CtHtrA R373A = test: Oligomerisation assay, mutated protein; type: biochemical, Chlamydia trachomatis; conditions: R373A mutant, 10 mins incubation
# Procedure: as §1, §2
# CtHtrA R373A/R299W = test: Oligomerisation assay, mutated protein; type: biochemical, Chlamydia trachomatis; conditions: R373A/R299W mutant, 10 mins incubation
# Description: This activation was very similar to that observed for CtHtrA, and was the only condition during which any of the mutated proteins oligomerised in a similar profile to CtHtrA.
# as §2, with “All assays were conducted in duplicate on three separate occasions with at least two gels of each experiment completed for each assay condition.” left out
substance,measurement,setting,value
H-VLGPVRGPFPIIV-OH [Act1],CtHtrA oligomer formation induced by activator,CtHtrA,induced the protein to form 24-mers
same,oligomer formation induced by activator,CtHtrA I365D,"no 12-mers, but only hexamers and 24-mers were detected"
same,oligomer formation induced by activator,CtHtrA R299W,Low levels of 24-mer were formed
same,oligomer formation induced by activator,CtHtrA R373A,resulted in 24-mer formation
same,oligomer formation induced by activator,CtHtrA R373A/R299W,induced R373A/R299W 24-mer formation
